{
  "source": "paper PMC11864979",
  "about": "“First-in-class ultralong-target-residence-time p38α inhibitors as a mitosis-targeted therapy for colorectal cancer” (Nature Cancer, 2025)",
  "assay_in_all_cases": "selectivity profiling in a panel of 340 wild-type kinases (Reaction Biology Europe)",
  "assay_type_in_all_cases": "binding",
  "key": {"340 wild-type kinases [1]": {"target": "T1, 340 wild-type kinases (Homo sapiens, UniProt O15111)", "T1 construct": "purchased Reaction Biology Europe", "T1 sequence (O15111 1-745)": "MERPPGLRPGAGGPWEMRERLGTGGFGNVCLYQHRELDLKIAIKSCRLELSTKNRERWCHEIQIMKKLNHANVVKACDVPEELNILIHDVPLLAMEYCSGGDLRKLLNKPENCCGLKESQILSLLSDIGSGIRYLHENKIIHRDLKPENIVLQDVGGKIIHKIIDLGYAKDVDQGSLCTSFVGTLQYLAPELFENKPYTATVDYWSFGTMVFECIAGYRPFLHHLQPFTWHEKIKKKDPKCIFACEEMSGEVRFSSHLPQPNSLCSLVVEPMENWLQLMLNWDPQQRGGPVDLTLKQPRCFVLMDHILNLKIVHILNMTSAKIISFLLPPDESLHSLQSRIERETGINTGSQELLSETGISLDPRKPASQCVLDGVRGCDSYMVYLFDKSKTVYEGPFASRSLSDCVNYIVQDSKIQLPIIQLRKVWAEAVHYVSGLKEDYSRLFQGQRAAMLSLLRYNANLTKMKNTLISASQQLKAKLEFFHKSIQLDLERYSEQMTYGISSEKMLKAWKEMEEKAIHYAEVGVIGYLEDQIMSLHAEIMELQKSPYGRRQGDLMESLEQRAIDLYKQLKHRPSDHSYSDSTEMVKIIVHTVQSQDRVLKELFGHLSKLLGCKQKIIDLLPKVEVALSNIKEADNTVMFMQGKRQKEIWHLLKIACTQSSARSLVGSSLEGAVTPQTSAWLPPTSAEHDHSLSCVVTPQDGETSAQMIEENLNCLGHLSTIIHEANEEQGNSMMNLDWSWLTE"}, "340 wild-type kinases [2]": {"target": "T2, 340 wild-type kinases (Homo sapiens, UniProt O60566)", "T2 construct": "purchased Reaction Biology Europe", "T2 sequence (O60566 whole entry)": "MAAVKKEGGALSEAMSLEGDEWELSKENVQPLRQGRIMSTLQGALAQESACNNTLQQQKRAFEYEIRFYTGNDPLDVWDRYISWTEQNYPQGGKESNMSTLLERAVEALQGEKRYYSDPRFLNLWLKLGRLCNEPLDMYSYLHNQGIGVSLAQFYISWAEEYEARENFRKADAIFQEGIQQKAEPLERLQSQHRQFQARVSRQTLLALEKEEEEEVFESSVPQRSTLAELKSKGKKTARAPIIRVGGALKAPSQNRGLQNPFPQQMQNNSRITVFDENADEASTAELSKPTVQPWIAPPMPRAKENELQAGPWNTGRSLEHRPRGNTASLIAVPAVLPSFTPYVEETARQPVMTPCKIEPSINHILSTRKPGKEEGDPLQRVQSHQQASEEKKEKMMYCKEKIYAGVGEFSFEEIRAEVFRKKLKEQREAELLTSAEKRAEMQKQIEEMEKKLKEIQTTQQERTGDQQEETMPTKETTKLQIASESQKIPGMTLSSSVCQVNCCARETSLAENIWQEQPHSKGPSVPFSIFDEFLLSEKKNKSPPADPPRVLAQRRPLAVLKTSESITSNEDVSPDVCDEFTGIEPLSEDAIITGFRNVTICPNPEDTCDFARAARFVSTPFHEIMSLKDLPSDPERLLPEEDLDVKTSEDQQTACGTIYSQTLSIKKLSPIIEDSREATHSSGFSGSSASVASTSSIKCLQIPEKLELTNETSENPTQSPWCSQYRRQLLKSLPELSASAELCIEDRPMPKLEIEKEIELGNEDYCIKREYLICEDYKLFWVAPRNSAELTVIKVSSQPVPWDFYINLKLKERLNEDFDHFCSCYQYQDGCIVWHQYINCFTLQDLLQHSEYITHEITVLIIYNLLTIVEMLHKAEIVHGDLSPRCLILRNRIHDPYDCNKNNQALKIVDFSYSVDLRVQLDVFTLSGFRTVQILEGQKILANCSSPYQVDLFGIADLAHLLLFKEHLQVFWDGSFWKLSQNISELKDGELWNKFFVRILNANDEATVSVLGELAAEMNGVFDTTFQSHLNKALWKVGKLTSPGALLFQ"}, "340 wild-type kinases [3]": {"target": "T3, 340 wild-type kinases (Homo sapiens, UniProt P00533)", "T3 construct": "purchased Reaction Biology Europe", "T3 sequence (P00533 25-1210)": "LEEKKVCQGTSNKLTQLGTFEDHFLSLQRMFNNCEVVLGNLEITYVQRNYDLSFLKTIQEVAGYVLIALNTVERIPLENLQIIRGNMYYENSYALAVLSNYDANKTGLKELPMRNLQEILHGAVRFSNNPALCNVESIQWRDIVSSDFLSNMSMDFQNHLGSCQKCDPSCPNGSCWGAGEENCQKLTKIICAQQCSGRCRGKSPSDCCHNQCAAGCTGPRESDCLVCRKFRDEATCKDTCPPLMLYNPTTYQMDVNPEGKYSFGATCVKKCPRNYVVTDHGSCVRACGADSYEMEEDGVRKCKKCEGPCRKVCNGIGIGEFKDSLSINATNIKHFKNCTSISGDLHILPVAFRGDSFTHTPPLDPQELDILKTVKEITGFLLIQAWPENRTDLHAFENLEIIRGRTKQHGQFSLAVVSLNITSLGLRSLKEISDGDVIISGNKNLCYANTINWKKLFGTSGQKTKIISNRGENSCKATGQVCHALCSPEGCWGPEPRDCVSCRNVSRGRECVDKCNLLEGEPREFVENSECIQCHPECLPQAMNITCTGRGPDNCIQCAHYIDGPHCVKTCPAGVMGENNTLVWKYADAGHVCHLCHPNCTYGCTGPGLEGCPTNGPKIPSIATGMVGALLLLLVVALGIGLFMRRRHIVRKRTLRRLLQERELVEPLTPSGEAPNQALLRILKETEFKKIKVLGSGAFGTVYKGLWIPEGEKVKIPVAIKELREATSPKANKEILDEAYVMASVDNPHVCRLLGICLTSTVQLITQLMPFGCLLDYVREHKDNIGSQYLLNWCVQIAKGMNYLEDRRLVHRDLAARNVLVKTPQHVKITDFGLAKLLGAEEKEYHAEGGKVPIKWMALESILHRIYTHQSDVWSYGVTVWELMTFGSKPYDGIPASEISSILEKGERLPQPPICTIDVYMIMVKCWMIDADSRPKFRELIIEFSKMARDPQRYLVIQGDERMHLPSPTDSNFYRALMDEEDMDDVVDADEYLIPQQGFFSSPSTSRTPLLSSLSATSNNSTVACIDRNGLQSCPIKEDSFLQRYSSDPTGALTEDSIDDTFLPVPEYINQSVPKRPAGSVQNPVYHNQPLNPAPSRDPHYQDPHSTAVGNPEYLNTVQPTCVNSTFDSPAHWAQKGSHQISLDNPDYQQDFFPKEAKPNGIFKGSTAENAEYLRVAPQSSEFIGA"}, "340 wild-type kinases [4]": {"target": "T4, 340 wild-type kinases (Homo sapiens, UniProt P28482)", "T4 construct": "purchased Reaction Biology Europe", "T4 sequence (P28482 whole entry)": "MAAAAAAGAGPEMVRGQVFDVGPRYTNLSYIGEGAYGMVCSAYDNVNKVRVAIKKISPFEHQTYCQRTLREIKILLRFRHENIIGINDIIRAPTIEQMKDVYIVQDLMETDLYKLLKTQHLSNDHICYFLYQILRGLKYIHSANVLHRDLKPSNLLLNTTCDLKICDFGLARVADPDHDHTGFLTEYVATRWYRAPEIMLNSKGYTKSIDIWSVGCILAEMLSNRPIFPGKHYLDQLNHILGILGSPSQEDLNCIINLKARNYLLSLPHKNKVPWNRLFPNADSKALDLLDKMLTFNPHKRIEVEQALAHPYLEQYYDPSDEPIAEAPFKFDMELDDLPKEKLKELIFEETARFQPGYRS"}, "340 wild-type kinases [5]": {"target": "T5, 340 wild-type kinases (Homo sapiens, UniProt P41743)", "T5 construct": "purchased Reaction Biology Europe", "T5 sequence (P41743 1-596)": "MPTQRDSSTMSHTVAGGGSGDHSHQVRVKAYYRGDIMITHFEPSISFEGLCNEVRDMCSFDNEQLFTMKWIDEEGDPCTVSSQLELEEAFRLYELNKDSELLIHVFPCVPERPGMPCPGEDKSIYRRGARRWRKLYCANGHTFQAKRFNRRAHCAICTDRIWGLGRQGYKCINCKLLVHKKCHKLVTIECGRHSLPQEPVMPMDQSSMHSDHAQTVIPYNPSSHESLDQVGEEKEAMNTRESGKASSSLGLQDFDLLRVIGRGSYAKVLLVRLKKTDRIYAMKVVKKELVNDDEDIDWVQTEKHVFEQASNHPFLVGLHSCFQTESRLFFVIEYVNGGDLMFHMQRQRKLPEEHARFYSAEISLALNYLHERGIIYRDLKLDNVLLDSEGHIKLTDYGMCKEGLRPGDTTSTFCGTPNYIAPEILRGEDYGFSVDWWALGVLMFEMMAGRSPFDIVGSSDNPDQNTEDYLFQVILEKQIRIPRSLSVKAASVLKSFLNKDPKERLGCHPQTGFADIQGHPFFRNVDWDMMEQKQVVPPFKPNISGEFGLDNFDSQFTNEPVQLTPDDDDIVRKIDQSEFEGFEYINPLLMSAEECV"}, "340 wild-type kinases [6]": {"target": "T6, 340 wild-type kinases (Homo sapiens, UniProt P80192)", "T6 construct": "purchased Reaction Biology Europe", "T6 sequence (P80192 whole entry)": "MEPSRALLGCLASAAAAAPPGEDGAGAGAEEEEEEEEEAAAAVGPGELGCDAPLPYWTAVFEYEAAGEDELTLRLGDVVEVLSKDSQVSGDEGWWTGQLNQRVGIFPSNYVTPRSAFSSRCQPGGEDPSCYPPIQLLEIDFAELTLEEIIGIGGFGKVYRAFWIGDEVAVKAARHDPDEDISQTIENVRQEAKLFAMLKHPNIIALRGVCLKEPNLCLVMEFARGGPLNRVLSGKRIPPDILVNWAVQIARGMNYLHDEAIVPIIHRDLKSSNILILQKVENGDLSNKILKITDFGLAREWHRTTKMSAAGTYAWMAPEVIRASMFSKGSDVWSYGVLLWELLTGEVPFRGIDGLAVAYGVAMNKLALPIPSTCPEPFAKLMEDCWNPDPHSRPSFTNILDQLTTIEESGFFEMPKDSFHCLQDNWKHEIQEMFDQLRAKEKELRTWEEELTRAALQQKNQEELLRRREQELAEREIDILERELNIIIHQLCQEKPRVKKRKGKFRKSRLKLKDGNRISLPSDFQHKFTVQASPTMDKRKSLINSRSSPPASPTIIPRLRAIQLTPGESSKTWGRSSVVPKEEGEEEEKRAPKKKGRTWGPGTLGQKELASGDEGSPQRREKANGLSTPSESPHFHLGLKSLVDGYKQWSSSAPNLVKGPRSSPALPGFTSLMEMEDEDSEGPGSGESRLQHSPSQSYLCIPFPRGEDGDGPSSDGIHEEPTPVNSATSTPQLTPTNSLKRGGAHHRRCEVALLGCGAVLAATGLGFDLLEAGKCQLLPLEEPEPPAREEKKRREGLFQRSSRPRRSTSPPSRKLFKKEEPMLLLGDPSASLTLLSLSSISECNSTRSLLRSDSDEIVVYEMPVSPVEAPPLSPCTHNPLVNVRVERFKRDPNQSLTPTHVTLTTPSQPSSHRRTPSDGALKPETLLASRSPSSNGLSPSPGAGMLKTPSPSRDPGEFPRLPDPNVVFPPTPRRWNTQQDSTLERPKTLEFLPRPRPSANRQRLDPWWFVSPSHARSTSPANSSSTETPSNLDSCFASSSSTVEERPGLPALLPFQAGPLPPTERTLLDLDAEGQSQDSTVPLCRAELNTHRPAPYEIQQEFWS"}, "340 wild-type kinases [7]": {"target": "T7, 340 wild-type kinases (Homo sapiens, UniProt Q15139)", "T7 construct": "purchased Reaction Biology Europe", "T7 sequence (Q15139 1-912)": "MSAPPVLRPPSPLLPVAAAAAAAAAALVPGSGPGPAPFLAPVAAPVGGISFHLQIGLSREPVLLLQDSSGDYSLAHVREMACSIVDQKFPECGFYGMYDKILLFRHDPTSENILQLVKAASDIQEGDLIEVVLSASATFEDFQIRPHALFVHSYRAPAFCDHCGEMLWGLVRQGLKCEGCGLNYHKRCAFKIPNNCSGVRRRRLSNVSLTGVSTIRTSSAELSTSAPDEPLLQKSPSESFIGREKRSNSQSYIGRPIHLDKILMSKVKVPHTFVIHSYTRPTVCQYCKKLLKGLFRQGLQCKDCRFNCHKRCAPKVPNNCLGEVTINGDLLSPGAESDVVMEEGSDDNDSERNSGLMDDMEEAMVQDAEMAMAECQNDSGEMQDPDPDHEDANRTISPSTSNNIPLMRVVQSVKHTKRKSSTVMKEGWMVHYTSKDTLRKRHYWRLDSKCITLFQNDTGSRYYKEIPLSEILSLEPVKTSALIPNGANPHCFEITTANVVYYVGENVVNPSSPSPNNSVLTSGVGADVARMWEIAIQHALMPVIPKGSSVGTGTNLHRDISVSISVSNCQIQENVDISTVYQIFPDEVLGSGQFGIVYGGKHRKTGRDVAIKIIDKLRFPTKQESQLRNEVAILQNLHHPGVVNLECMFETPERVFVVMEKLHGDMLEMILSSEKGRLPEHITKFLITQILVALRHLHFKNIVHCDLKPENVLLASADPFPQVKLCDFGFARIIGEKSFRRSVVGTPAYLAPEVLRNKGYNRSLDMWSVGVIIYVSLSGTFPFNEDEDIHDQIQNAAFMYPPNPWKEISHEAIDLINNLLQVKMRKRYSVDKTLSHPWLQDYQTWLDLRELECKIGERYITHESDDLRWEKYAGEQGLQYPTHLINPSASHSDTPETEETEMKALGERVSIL"}},
  "note": "Where two headings read alike, the source gives them in different places.",
  "data": [
    {"smiles": "CNC(=O)c1ccc2c(c1)C(=O)c1ccc(Nc3ccc(F)c(NC(=O)C4CC4)c3)cc1CC2", "note": "[Compound 2015]", "values": [
      {"measurement": "remaining activity at 0.2 µM", "setting": "340 wild-type kinases [1]; 0.2 µM 2015, read-out: IKKalpha residual activity", "result": 97.6, "unit": "%"},
      {"measurement": "remaining activity at 1 µM", "setting": "340 wild-type kinases [1]; 1 µM 2015, read-out: IKKalpha residual activity", "result": 92, "unit": "%"},
      {"measurement": "remaining activity at 0.2 µM", "setting": "340 wild-type kinases [1]; IKKalpha, 0.2 µM, read-out: residual activity", "result": 97.6, "unit": "%"},
      {"measurement": "remaining activity at 1 µM", "setting": "340 wild-type kinases [1]; IKKalpha, 1 µM, read-out: residual activity", "result": 92, "unit": "%"},
      {"measurement": "remaining activity at 0.2 µM", "setting": "340 wild-type kinases [2]; 0.2 µM 2015, read-out: BUB1B residual activity", "result": 94.1, "unit": "%"},
      {"measurement": "remaining activity at 1 µM", "setting": "340 wild-type kinases [2]; 1 µM 2015, read-out: BUB1B residual activity", "result": 95.8, "unit": "%"},
      {"measurement": "remaining activity at 0.2 µM", "setting": "340 wild-type kinases [2]; BUB1B, 0.2 µM, read-out: residual activity", "result": 94.1, "unit": "%"},
      {"measurement": "remaining activity at 1 µM", "setting": "340 wild-type kinases [2]; BUB1B, 1 µM, read-out: residual activity", "result": 95.8, "unit": "%"},
      {"measurement": "remaining activity at 0.2 µM", "setting": "340 wild-type kinases [3]; 0.2 µM 2015, read-out: EGFR residual activity", "result": 108, "unit": "%"},
      {"measurement": "remaining activity at 1 µM", "setting": "340 wild-type kinases [3]; 1 µM 2015, read-out: EGFR residual activity", "result": 96.6, "unit": "%"},
      {"measurement": "remaining activity at 0.2 µM", "setting": "340 wild-type kinases [3]; EGFR, 0.2 µM, read-out: residual activity", "result": 108, "unit": "%"},
      {"measurement": "remaining activity at 1 µM", "setting": "340 wild-type kinases [3]; EGFR, 1 µM, read-out: residual activity", "result": 96.6, "unit": "%"},
      {"measurement": "remaining activity at 0.2 µM", "setting": "340 wild-type kinases [4]; 0.2 µM 2015, read-out: ERK2 residual activity", "result": 99.1, "unit": "%"},
      {"measurement": "remaining activity at 1 µM", "setting": "340 wild-type kinases [4]; 1 µM 2015, read-out: ERK2 residual activity", "result": 90.5, "unit": "%"},
      {"measurement": "remaining activity at 0.2 µM", "setting": "340 wild-type kinases [4]; ERK2, 0.2 µM, read-out: residual activity", "result": 99.1, "unit": "%"},
      {"measurement": "remaining activity at 1 µM", "setting": "340 wild-type kinases [4]; ERK2, 1 µM, read-out: residual activity", "result": 90.5, "unit": "%"},
      {"measurement": "remaining activity at 0.2 µM", "setting": "340 wild-type kinases [5]; 0.2 µM 2015, read-out: PKCiota residual activity", "result": 104, "unit": "%"},
      {"measurement": "remaining activity at 1 µM", "setting": "340 wild-type kinases [5]; 1 µM 2015, read-out: PKCiota residual activity", "result": 92, "unit": "%"},
      {"measurement": "remaining activity at 0.2 µM", "setting": "340 wild-type kinases [5]; PKCiota, 0.2 µM, read-out: residual activity", "result": 104, "unit": "%"},
      {"measurement": "remaining activity at 1 µM", "setting": "340 wild-type kinases [5]; PKCiota, 1 µM, read-out: residual activity", "result": 92, "unit": "%"},
      {"measurement": "remaining activity at 0.2 µM", "setting": "340 wild-type kinases [6]; 0.2 µM 2015, read-out: MAP3K9 residual activity", "result": 114, "unit": "%"},
      {"measurement": "remaining activity at 1 µM", "setting": "340 wild-type kinases [6]; 1 µM 2015, read-out: MAP3K9 residual activity", "result": 96.4, "unit": "%"},
      {"measurement": "remaining activity at 0.2 µM", "setting": "340 wild-type kinases [6]; MAP3K9, 0.2 µM, read-out: residual activity", "result": 114, "unit": "%"},
      {"measurement": "remaining activity at 1 µM", "setting": "340 wild-type kinases [6]; MAP3K9, 1 µM, read-out: residual activity", "result": 96.4, "unit": "%"},
      {"measurement": "remaining activity at 0.2 µM", "setting": "340 wild-type kinases [7]; 0.2 µM 2015, read-out: PKCmu residual activity", "result": 98.1, "unit": "%"},
      {"measurement": "remaining activity at 1 µM", "setting": "340 wild-type kinases [7]; 1 µM 2015, read-out: PKCmu residual activity", "result": 95.1, "unit": "%"},
      {"measurement": "remaining activity at 0.2 µM", "setting": "340 wild-type kinases [7]; PKCmu, 0.2 µM, read-out: residual activity", "result": 98.1, "unit": "%"},
      {"measurement": "remaining activity at 1 µM", "setting": "340 wild-type kinases [7]; PKCmu, 1 µM, read-out: residual activity", "result": 95.1, "unit": "%"}
    ]}
  ]
}
